In patent publication US7473711B2, “Androgen modulators” (Pfizer Inc., priority 2004, dated 2009):
Read-outs that look alike come from different tables or passages of the source.

Tests used:
[1] = biological target: T1, hAR (human androgen receptor) (Homo sapiens, UniProt P10275); test: Competitive binding analysis on hAR extracts with 3H-DHT tracer
T1 construct: made in house; host or cells: baculovirus/Sf9 insect cells (extract)
T1 sequence (P10275 1-920): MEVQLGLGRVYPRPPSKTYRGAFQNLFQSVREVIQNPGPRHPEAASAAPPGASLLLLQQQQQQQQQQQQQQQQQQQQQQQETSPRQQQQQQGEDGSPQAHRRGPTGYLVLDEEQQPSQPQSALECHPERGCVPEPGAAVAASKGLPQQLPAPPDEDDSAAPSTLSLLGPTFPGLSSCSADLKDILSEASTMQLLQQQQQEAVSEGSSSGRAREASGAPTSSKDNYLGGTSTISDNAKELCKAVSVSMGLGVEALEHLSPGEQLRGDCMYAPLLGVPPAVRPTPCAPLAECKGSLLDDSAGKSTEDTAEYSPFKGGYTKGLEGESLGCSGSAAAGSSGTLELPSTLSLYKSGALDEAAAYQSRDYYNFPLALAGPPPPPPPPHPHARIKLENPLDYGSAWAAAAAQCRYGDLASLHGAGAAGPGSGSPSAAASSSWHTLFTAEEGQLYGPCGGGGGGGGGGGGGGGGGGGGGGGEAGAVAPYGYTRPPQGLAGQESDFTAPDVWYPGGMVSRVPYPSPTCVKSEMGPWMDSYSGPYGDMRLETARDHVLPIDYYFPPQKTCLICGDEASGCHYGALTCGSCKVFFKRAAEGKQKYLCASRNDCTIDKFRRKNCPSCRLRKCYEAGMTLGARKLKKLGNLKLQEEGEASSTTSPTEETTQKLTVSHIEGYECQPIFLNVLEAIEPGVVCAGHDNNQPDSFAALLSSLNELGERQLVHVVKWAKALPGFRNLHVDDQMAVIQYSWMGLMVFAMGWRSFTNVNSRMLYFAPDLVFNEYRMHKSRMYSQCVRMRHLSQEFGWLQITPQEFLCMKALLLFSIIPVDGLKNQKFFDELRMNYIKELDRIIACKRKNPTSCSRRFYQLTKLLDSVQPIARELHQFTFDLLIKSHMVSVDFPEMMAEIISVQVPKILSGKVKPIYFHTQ
Description: The compounds of Formula I have affinity for the androgen receptor. […] The description below describes how the assay was carried out.
Competitive binding analysis was performed on baculovirus/Sf9 generated hAR extracts in the presence or absence of different concentrations of test agent and a fixed concentration of ^3H-dihydrotestosterone (^3H-DHT) as tracer. This binding assay method is a modification of a protocol previously described (Liao S., et. al. J. Steroid Biochem. 20:11-17 1984). Briefly, progressively decreasing concentrations of compounds are incubated in the presence of hAR extract (Chang et al. P.N.A.S. Vol. 89, pp. […], 1992), hydroxylapatite, and 1 nM ^3H-DHT for one hour at 4° C. Subsequently, the binding reactions are washed three times to completely remove excess unbound ^3H-DHT. hAR bound ^3H-DHT levels are determined in the presence of compounds (i.e. competitive binding) and compared to levels bound when no competitor is present (i.e. maximum binding). Compound binding affinity to the hAR is expressed as the concentration of compound at which one half of the maximum binding is inhibited. Table II below provides the results that were obtained for selected compounds (reported data is the mean of multiple tests as shown below)

sebum production = test: Animal model for inhibition of sebum production (hamster ear, HPLC of sebum lipids); type: in vivo, male Syrian hamsters; conditions: 4 weeks; for Sum CE + WE: sum of CE and WE reductions; for % Reduction in CE / % Reduction in WE: five days a week; for % Reduction in CE: cholesterol ester vs vehicle control; for % Reduction in WE: wax ester vs vehicle control
Description: Animal Model for Inhibition of Sebum Production
Luderschmidt et al describes an animal model for testing whether compounds are capable of modulating sebum secretion. Arch. Derm. Res. 258, 185-191 (1977). This model uses male Syrian hamsters, whose ears contain sebaceous glands. The products of Examples 24, 27 and 28 were screened in this model.
Testing for sebum inhibition was carried out in the following manner. Male Syrian hamsters aged 9 to 10 weeks were introduced into the laboratory environment and acclimated for 2 weeks prior to use in the study. Each group consisted of 5 animals and run in parallel with vehicle and positive controls. Prior to administration, a sufficient quantity each compound was dissolved in 1 mL of a solvent consisting of transcutanol, ethanol, and propylene glycol (20/60/20% v/v) to achieve a final concentration of 0.5 w/v % or 3.0 w/v %.
Animals were dosed topically twice daily, five days a week, for 4 weeks. Each dose consisted of 25 micro liters of vehicle control or drug. The dose was applied to the ventral surfaces of both the right and left ears. All animals were sacrificed approximately 18-24 hours after the final dose. The right ears were collected from each animal and used for sebum analysis.
The ears were prepped for HPLC analysis in the following manner. One 8 mm distal biopsy punch was taken, just above the anatomical “V” mark in the ear to normalize the sample area. The punch was pulled apart. The ventral biopsy surface (the area where the topical dose was directly applied to the sebaceous glands) was retained for testing and the dorsal surface of the biopsy punch was discarded.
Tissue samples were blown with N2 gas and stored at −80° C. under nitrogen until HPLC analysis. In addition to ear samples, an aliquot of each drug and vehicle (at least 250 ul) was also stored at −80° C. for inclusion in the HPLC analysis.
HPLC analysis was carried out on an extract of the tissue sample. Tissue samples were contacted with 3 ml of solvent (a 4:1 admixture of 2,2,4-trimethylpentane and isopropyl alcohol). The mixture was shaken for 15 minutes and stored overnight at room temperature, protected from light. The next morning 1 milliliter of water was added to the sample and shaken for 15 minutes. The sample was then centrifuged at approximately 1500 rpm for 15 minutes. Two ml of the organic phase (top layer) was transferred to a glass vial, dried at 37° C., under nitrogen, for approximately 1 hour, and then lyophilized for approximately 48 hours. The samples were then removed from the lyophilizer and each vial was reconstituted with 600 μl of solvent A (trimethylpentane/tetrahydrofuran (99:1). The samples were then recapped and vortexed for 5 minutes.
200 μl of each sample was then transferred to a pre-labeled 200 μl HPLC vial with 200 μL glass inserts. The HPLC vials were placed in the autosampler tray for the Agilent 1100 series HPLC unit. The Agilent 1100 HPLC system consisted of a thermostated autosampler, a quarternary pump, a column heater, and an A/D interface module. All components were controlled by Agilent ChemStation software. A Waters Spherisorb S3W 4.6×100 mm analytical column was maintained at 30° C. by the Agilent column heater unit. The HPLC autosampler was programmed to maintain the sample temperature at 20 C throughout the run.
10 uL of each sample was injected in triplicate into the column. Two solvents were used for the solvent gradient. Solvent A was an admixture of trimethylpentane and tetrahydrofuran (99:1). Solvent B was ethylacetate. The gradient utilized is described in the table below: […]
The Sedex 75 Evaporative Light Scattering Detector (ELSD) was operated at 45° C. with a gain of 5, and N2 pressure maintained at 3.1 bar. Analog signal obtained by the instrument was sent to the Agilent A/D interface module where it was converted to a digital output. The conversion was based on a 10000 mAU/volt set point and the data rate was set at 10 Hz (0.03 min). […]

[2] = 0.5 w/v % topical twice daily, negative = increase in sebum

## N#Cc1ccc(OC(CO)COc2ccccc2)cc1C(F)(F)F (stereo not drawn) [Example 28, 4-(1-Hydroxymethyl-2-phenoxy-ethoxy)-2-trifluoromethyl-benzonitrile]
[1]
  IC50: 81 nM
Sebum production; 3 w/v % topical twice daily
  Sum CE + WE: 40
  % Reduction in CE: 11%
  % Reduction in WE: 19%

## COCC(COc1ccccc1)Oc1ccc(C#N)c(C(F)(F)F)c1 (stereo not drawn) [Example 27, 4-(1-Methoxymethyl-2-phenoxy-ethoxy)-2-trifluoromethyl-benzonitrile]
[1]
  IC50: 5 nM
Sebum production; 3 w/v % topical twice daily
  Sum CE + WE: 147
  % Reduction in CE: 63%
  % Reduction in WE: 84%

## N#Cc1ccc(OCCCCCOc2ccc(C#N)c(C(F)(F)F)c2)cc1C(F)(F)F [Example 24]
[1]; baculovirus/Sf9 hAR extract, 1 nM 3H-DHT, one hour at 4° C, mean of multiple tests, read-out: AR Binding IC50
  IC50: 128 nM
Sebum production; 0.5 w/v % topical twice daily
  Sum CE + WE: −74
Sebum production; [2]
  % Reduction in CE: −33%
  % Reduction in WE: −41%
